Patent US4737497A, “Bis-dioxopiperazine derivatives, antitumor agents comprising them and compositions containing them” (Zenyaki Kogyo Kabushiki Kaisha, priority 1983, dated 1988)
Values after ≈ are worked out from the molar mass of the structure shown.

Legend:
[1] = test system: B-16 melanoma; assay: Growth inhibition test on B-16 melanoma; assay type: in vivo, mice (BDF1 (C57BL/6×DBA/2)); conditions: Mus musculus, B16, po, 480 h, orally, once a day for 8 days, tumor weight on 20th day, read-out: G.I. (growth inhibition); for inhibition in vivo at 60 mg/kg: 60 mg/kg daily; for inhibition in vivo at 40 mg/kg: 40 mg/kg daily; for inhibition in vivo at 20 mg/kg: 20 mg/kg daily
Protocol: The treated group to which the compound of the present invention was administered consisted of seven mice, while the control group consisted of ten mice. Six weeks old male mice [BDF1 (C57BL/6×DBA/2), 25+2 g of body weight] were employed as host animals.
Tumor cells (5×10^5) of B-16 melanoma were transplanted subcutaneously in inguinal region of each mouse. The treatment began one day after the transplantation and the prescribed dose of each test compound was administered orally to the mice once a day for 8 days.
On the 20th day after the transplantation, the tumors of all the mice were excised and weighed. Antitumor activity of the test compound was evaluated by the rate of growth inhibition (G.I.%) which was calculated in the same manner as used in the animal test on Lewis lung carcinoma.

[2] = Animal test on acute toxicity; conditions: mouse, in vivo, ip; intraperitoneal, male ddY mice, observed 14 days, Litchfield-Wilcoxon method
Protocol: The test group to which the compound of the present invention was administered consisted of ten mice. Five weeks old male mice (ddY, 23±2 g of body weight) were employed as test animals.

[3] = test system: Lewis lung carcinoma; assay: Growth inhibition test on Lewis lung carcinoma; assay type: in vivo, mice (BDF1 (C57BL/6×DBA/2)); conditions: Mus musculus, po, 480 h, orally, once a day for 8 days, tumor weight on 20th day, read-out: G.I. (growth inhibition); for inhibition in vivo at 60 mg/kg: 60 mg/kg daily; for inhibition in vivo at 40 mg/kg: 40 mg/kg daily
Protocol: The treated group to which the compound of the present invention was administered consisted of seven mice, while the control group consisted of ten mice. Six weeks old male mice [BDF1 (C57BL/6×DBA/2), 25±2 g of body weight] were employed as host animals.
Tumor cells (5×10^5) of Lewis lung carcinoma were transplanted subcutaneously in inguinal region of each mouse. The treatment began one day after the transplantation and the prescribed dose of each test compound was administered orally to the mice once a day for 8 days.
On the 20th day after the transplantation, the tumors of all the mice were excised and weighed. Antitumor activity of the test compound was evaluated by the rate of growth inhibition (G.I.%) which was calculated with the following formula. [formula] T: mean tumor weight of treated mice C: mean tumor weight of control mice

[4] = test system: Colon adenocarcinoma No. 38; assay: Growth inhibition test on Colon adenocarcinoma No. 38; assay type: in vivo, mice (BDF1); conditions: orally, once a day for 8 days, tumor weight on 30th day
Protocol: The treated group to which the compound of the present invention was administered consisted of seven mice, while the control group consisted of ten mice. Six weeks old male mice [BDF1 (G57BL/6×DBA/2), 25±2 g of body weight] were employed as hosts animals.
Tumor cells (40 mg of fragment) of Colon adenocarcinoma No. 38 were transplanted subcutaneously in inguinal region of each mouse. The treatment began one day after the transplantation and the prescribed dose of each test compound was administered orally to the mice once a day for 8 days.
On the 30th day after the transplantaion, the tumors of all the mice were excised and weighed. Antitumor activity of the test compound was evaluated by the rate of growth inhibition (G.I.%) which was calculated in the same manner as used in the animal test on Lewis lung carcinoma.

[5] = test system: Hepatoma 22; assay: Growth inhibition test on Hepatoma 22; assay type: in vivo, mice (K-M); conditions: 25 mg/kg daily, orally, once a day for 9 days; tumor weight on 12th day
Protocol: The treated group to which the compound of the present invention was administered consisted of ten mice, while the control group consisted of twenty mice. Four weeks old female mice (K-M, 20±2 g of body weight) were employed as host animals.
Tumor cells (a 2 mm^3 fragment) of Hepatoma 22 were transplanted subcutaneously in the flank of each mouse. The treatment began one day after the transplantation and the prescribed dose of the test compound was administered orally to the mice once a day for 9 days.
(§1) On the 12th day after the transplantation, the tumors of all the mice were excised and weighed. Antitumor activity of the test compound was evaluated by the rate of growth inhibition (G.I.%) which was calculated in the same manner as used in the animal test on Lewis lung carcinoma.

[6] = Animal test on subacute toxicity; conditions: mouse, in vivo, ip; intraperitoneal, once a day for 8 days, female K-M mice, observed 14 days, Bliss-Finney method
Protocol: The test group to which the compound of the present invention was administered consisted of ten mice, while the control group consisted of ten mice. Four weeks old female mice (K-M, 20±2 g of body weight) were employed as test animals.
LD50 value of the subacute toxicity was determined by the Bliss-Finney statistical method.

[7] = test system: Sarcoma 37; assay: Growth inhibition test on Sarcoma 37; assay type: in vivo, mice (K-M); conditions: once a day for 10 days; for G.I. (growth inhibition): tumor weight on 12th day; for ED50: Mus musculus, 288 h
Protocol: The treated group to which the compound of the present invention was administered consisted of eight mice, while the control group consisted of sixteen mice. Four weeks old female mice (K-M, 20±2 g of body weight) were employed as host animals.
Tumor cells (0.2 ml of 1:5 suspension) of Sarcoma 37 were transplanted subcutaneously in the flank of each mouse. The treatment began one day after the transplantation and the prescribed dose (1.56-50 mg/kg) of dl-1,2-bis(4-morpholinomethyl-3,5-dioxopiperazin-1-yl)-propane was administered intraperitoneally (i.p.) or orally (p.o.) to the mice once a day for 10 days.
as §1

[8] = Solubility in water; assay type: physicochemical; conditions: 25° C.

O=C1CN(CCN2CC(=O)N(CN3CCSCC3)C(=O)C2)CC(=O)N1CN1CCSCC1 [1,2-Bis(4-thiomorpholinomethyl-3,5-dioxopiperazin-1-yl)-ethane]
inhibition in vivo at 60 mg/kg [1]: 73.5%

CC(CN1CC(=O)N(CN2CCN(C)CC2)C(=O)C1)N1CC(=O)N(CN2CCN(C)CC2)C(=O)C1 (racemic) [dl-1,2-Bis[4-(N-methylpiperazinomethyl)-3,5-dioxopiperazin-1-yl]-propane]
LD50 at 336 h [2]: 300 to 400 mg/kg
inhibition in vivo at 60 mg/kg [3]: 53.5%

CC1CC(C)CN(CN2C(=O)CN(CC(C)N3CC(=O)N(CN4CC(C)CC(C)C4)C(=O)C3)CC2=O)C1 (racemic) [dl-1,2-Bis[4-(3,5-dimethylpiperidinomethyl)-3,5-dioxopiperazin-1-yl]-propan]
inhibition in vivo at 60 mg/kg [3]: 77.4%
inhibition in vivo at 60 mg/kg [1]: 91.2%

O=C1CN(CCN2CC(=O)N(CN3CCOCC3)C(=O)C2)CC(=O)N1CN1CCOCC1 [1,2-bis(4-morpholinomethyl-3,5-dioxopiperazin-1-yl)-ethane, reference compound]
LD50 at 336 h [2]: 280 mg/kg
inhibition in vivo at 60 mg/kg [3]: 22.6%
G.I. (growth inhibition) ([4]; 60 mg/kg daily): 72.8%
G.I. (growth inhibition) [5]: 12.9%
LD50 at 336 h [6]: 59.3 mg/kg
inhibition in vivo at 60 mg/kg [1]: 48.9%

CC1CC(C)CN(CN2C(=O)CN(CCN3CC(=O)N(CN4CC(C)CC(C)C4)C(=O)C3)CC2=O)C1 (centres unmarked) [1,2-Bis[4-(3,5-dimethylpiperidinomethyl)-3,5-dioxopiperazin-1-yl]-ethane]
LD50 at 336 h [2]: 400 to 500 mg/kg
inhibition in vivo at 60 mg/kg [3]: 67.2%
G.I. (growth inhibition) ([4]; 60 mg/kg daily): 83.1%
inhibition in vivo at 60 mg/kg [1]: 68.9%

CC(CN1CC(=O)N(CN2CCOCC2)C(=O)C1)N1CC(=O)NC(=O)C1 (racemic) [dl-1-(4-Morpholinomethyl-3,5-dioxopiperazin-1-yl)-2-(3,5-dioxopiperazin-1-yl)-propane]
inhibition in vivo at 40 mg/kg [3]: 83.9%
G.I. (growth inhibition) ([4]; 40 mg/kg daily): 74.1%
inhibition in vivo at 40 mg/kg [1]: 76.1%

CC(CN1CC(=O)N(CN2CCN(c3ccccc3)CC2)C(=O)C1)N1CC(=O)NC(=O)C1 (racemic) [dl-1-[4-(N-Phenylpiperazinomethyl)-3,5-dioxopiperazin-1-yl]-2-(3,5-dioxopiperazin-1-yl)-propane]
LD50 at 336 h [2]: > 350 mg/kg
inhibition in vivo at 40 mg/kg [3]: 76.2%
G.I. (growth inhibition) ([4]; 40 mg/kg daily): 93.5%
inhibition in vivo at 20 mg/kg [1]: 60.8%

CC(CN1CC(=O)N(CN2CCSCC2)C(=O)C1)N1CC(=O)N(CN2CCSCC2)C(=O)C1 (racemic) [dl-1,2-Bis(4-thiomorpholinomethyl-3,5-dioxopiperazin-1-yl)-propane]
LD50 at 336 h [2]: 330 mg/kg
inhibition in vivo at 40 mg/kg [1]: 77.5%

O=C1CN(CCN2CC(=O)N(CN3CCN(c4ccccc4)CC3)C(=O)C2)CC(=O)N1CN1CCN(c2ccccc2)CC1 [1,2-Bis[4-(N-phenylpiperazinomethyl)-3,5-dioxopiperazin-1-yl]-ethane]
LD50 at 336 h [2]: 200 to 300 mg/kg
inhibition in vivo at 60 mg/kg [3]: 78.9%
G.I. (growth inhibition) ([4]; 60 mg/kg daily): 97.9%
inhibition in vivo at 60 mg/kg [1]: 91.9%

CC(CN1CC(=O)N(CN2CCN(c3ccccc3)CC2)C(=O)C1)N1CC(=O)N(CN2CCN(c3ccccc3)CC2)C(=O)C1 (racemic) [dl-1,2-Bis[4-(N-phenylpiperazinomethyl)-3,5-dioxopiperazin-1-yl]-propane]
LD50 at 336 h [2]: 100 mg/kg
inhibition in vivo at 40 mg/kg [3]: 89%
inhibition in vivo at 20 mg/kg [1]: 71%

CC(CN1CC(=O)N(CN2CCOCC2)C(=O)C1)N1CC(=O)N(CN2CCOCC2)C(=O)C1 (racemic) [dl-1,2-Bis(4-morpholinomethyl-3,5-dioxopiperazin-1-yl)-propane]
LD50 at 336 h [2]: 255 mg/kg
G.I. (growth inhibition) ([7]; 1.56 mg/kg daily, i.p.): 33.2%
G.I. (growth inhibition) ([7]; 3.12 mg/kg daily, i.p.): 56.1%
G.I. (growth inhibition) ([7]; 3.12 mg/kg daily, p.o.): 39.3%
G.I. (growth inhibition) ([7]; 6.25 mg/kg daily, i.p.): 72.7%
G.I. (growth inhibition) ([7]; 6.25 mg/kg daily, p.o.): 68.8%
G.I. (growth inhibition) ([7]; 12.5 mg/kg daily, i.p.): 82.4%
G.I. (growth inhibition) ([7]; 12.5 mg/kg daily, p.o.): 94.2%
G.I. (growth inhibition) ([7]; 25 mg/kg daily, i.p.): 94.6%
G.I. (growth inhibition) ([7]; 25 mg/kg daily, p.o.): 100%
G.I. (growth inhibition) ([7]; 50 mg/kg daily, i.p.): 100%
ED50 ([7]; ip): 3.1 mg/kg
ED50 ([7]; po): 4.3 mg/kg
inhibition in vivo at 60 mg/kg [3]: 89.3%
solubility [8]: 20 mg/mL (≈ 42.9 mM)
G.I. (growth inhibition) ([4]; 60 mg/kg daily): 91.6%
G.I. (growth inhibition) [5]: 42.7%
LD50 at 336 h [6]: 178 mg/kg
inhibition in vivo at 60 mg/kg [1]: 93.8%
